± gives the expanded uncertainty stated by the source.
Tests used:
[1] = Molar enthalpy of transition or fusion; conditions: Crystal; DSC
[2] = Crystal; DTA

| Molar enthalpy of transition or fusion [1] [kcal/mol] | Normal melting temperature [2] [°C] | SMILES |
| --- | --- | --- |
| 7.82 ± 0.43 | 185.50 ± 0.99 | O=C(O)CCC(=O)O [butanedioic acid] |
| 8.4 ± 0.454 | 152.00 ± 0.99 | O=C(O)CCCCC(=O)O [1,6-hexanedioic acid] |
| 5.07 ± 0.287 | 99.10 ± 0.99 | O=C(O)CCCC(=O)O [1,5-pentanedioic acid] |

— the NIST ThermoML archive (doi:10.1021/je500682v)
